Data set [1] is described as follows: Pharmacokinetics and bioavailability in male mice after a single dose. In kind it is in vivo.
For another data set, the target named is ALK2 (ACVR1) (Homo sapiens (Human), UniProt Q04771). Nature of the data set: In vitro kinase assay (33P ATP), ALK2. The format is biochemical. The conditions noted are these: 10 μM ATP; read-out: Inhibition of ALK2 (IC50 μM).
A further data set relates to p-SMAD2. Nature of the data set: p-SMAD2 inhibition, Western Blot Analysis in MDA-MB-231 cells treated with TGFβ. As to conditions: Homo sapiens, TGFβ 2 ng/mL, samples run in triplicate; for inhibition at 0.1 µM: 0.1 μM compound, read-out: Average p-SMAD2 inhibition @ 0.1 μM (% Inh); for inhibition at 0.5 µM: 0.5 μM compound, read-out: Average p-SMAD2 inhibition @ 0.5 μM (% Inh). The format is cell-based. In general terms: A western blot detects proteins with antibodies after separation by electrophoresis.

The nature of data set [2]: Plasma and brain concentrations at 0.5 and 1 h. The conditions noted are these: PO. The format is in vivo, mice.

Chain of ALK2 (ACVR1) (Q04771 21-509): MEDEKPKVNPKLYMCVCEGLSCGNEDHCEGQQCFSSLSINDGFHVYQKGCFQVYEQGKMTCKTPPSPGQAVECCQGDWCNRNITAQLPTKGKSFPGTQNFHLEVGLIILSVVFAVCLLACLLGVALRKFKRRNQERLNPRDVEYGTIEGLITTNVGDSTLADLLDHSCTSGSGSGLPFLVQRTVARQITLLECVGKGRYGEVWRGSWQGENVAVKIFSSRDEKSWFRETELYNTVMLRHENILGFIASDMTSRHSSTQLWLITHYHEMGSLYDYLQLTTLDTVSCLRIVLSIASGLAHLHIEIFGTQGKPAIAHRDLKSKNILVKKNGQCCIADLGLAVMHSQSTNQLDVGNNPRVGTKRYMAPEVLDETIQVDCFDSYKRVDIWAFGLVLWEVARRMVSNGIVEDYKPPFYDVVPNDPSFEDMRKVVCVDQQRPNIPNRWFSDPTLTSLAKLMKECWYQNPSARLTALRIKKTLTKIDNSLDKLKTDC

In data set [1] (Intravenous, 2 mg/kg), `C=C(C)c1cnc(-c2cc(Cl)ccc2F)cc1Nc1ccncc1C(=O)NCC(C)O` (single isomer, unassigned) [Compound 3a] came in with an AUClast of 2.56 µM·h and a CL of 12.8 mL/min/kg. The molecule further displayed an AUClast in data set [1] (Oral, 10 mg/kg) of 10.5 µM·h.

The IC50 is the midpoint of a concentration-inhibition curve. Consider `COc1cnc(-c2cc(Cl)ccc2F)cc1Nc1ccncc1C(=O)NCC(C)O` (single isomer, unassigned) [Compound 13a], for which the IC50 at ALK2 (ACVR1) is above 100 µM.

By inhibition is commonly meant the share of the control response that was lost under treatment. Turning to `CC(C)c1cnc(-c2cc(Cl)ccc2F)cc1Nc1n[nH]cc1C(=O)NC[C@H](C)O` (single isomer, unassigned) [Compound 21a, 3-[[2-(5-chloro-2-fluoro-phenyl)-5-isopropyl-4-pyridyl]amino]-N-(2-hydroxypropyl)-1H-pyrazole-4-carboxamide], in the data set with p-SMAD2, the inhibition at 0.1 µM turned out to be 4.67% and the inhibition at 0.5 µM amounted to 7.67%.

In data set [1] (Intravenous, 2 mg/kg), `C=C(C)c1c(Nc2ccncc2C(=O)NCC(C)O)cc(-c2cc(Cl)ccc2F)nc1N` (single isomer, unassigned) [Compound 23a] came in with an AUClast of 1.11 µM·h and a CL of 66 mL/min/kg. The same molecule had an AUClast in data set [1] (Oral, 10 mg/kg) of 0.907 µM·h.

For the molecule `CC(C)c1cnc(-c2cc(Cl)ccc2F)cc1Nc1ccncc1CNC[C@H](C)O` [Compound 5a, (S)-1-((4-(2-(5-chloro-2-fluorophenyl)-5-isopropylpyridin-4-ylamino)pyridin-3-yl)methylamino)propan-2-ol], in the data set on p-SMAD2, the inhibition at 0.1 µM turned out to be 14.3% and the inhibition at 0.5 µM was determined as 41.3%.

For `C=C(C)c1cnc(-c2cc(Cl)ccc2F)cc1Nc1ccncc1C(=O)N[C@H](C)CO` [Compound 7b, (2R)-4-[[2-(5-chloro-2-fluoro-phenyl)-5-isopropenyl-4-pyridyl]amino]-N-(2-hydroxy-1-methyl-ethyl)pyridine-3-carboxamide], at ALK2 (ACVR1), the IC50 was above 100 µM.

On to `C=Cc1cnc(-c2cc(Cl)ccc2F)cc1Nc1ccncc1C(=O)NC[C@H](C)O` [Compound 10a, (S)-4-(2-(5-chloro-2-fluorophenyl)-5-vinylpyridin-4-ylamino)-N-(2-hydroxypropyl) nicotinamide], for which, in the data set with p-SMAD2, the inhibition at 0.5 µM came out at 64.3%.

Turning to `CC(C)c1cnc(-c2cc(Cl)ccc2F)cc1Nc1ccncc1C(=O)NCCN` [Compound 19, N-(2-aminoethyl)-4-[[2-(5-chloro-2-fluoro-phenyl)-5-isopropyl-4-pyridyl]amino]pyridine-3-carboxamide], the “Brain Concentration (μM)” value in data set [2] (0.5 h) and in data set [2] (1 h) was “BLQ” each time.

For `C=C(C)c1cnc(-c2cc(Cl)ccc2F)cc1Nc1n[nH]cc1C(=O)NC[C@H](C)O` [Compound 20a, (S)-3-[[2-(5-chloro-2-fluoro-phenyl)-5-isopropenyl-4-pyridyl]amino]-N-(2-hydroxypropyl)-1H-pyrazole-4-carboxamide], in the data set on p-SMAD2, the inhibition at 0.1 µM was 0% and the inhibition at 0.5 µM is 3.67%.
